tested on: S. sanguis; test: Ammonia production by S. sanguis at pH 4.0; format: cell-based; conditions: 5 millimolar amino acid, 0.1% sucrose, pH 4.0, 37° C., 30 minutes; mean of 6 trials
Protocol: An overnight culture of S. sanguis was grown at 37° C. in trypticase soy broth (Becton Dickinson, Sparks, Md.). The culture was centrifuged at 5,000 rpm for 5 minutes at 1 milliliter at a time into preweighed tubes in order to accumulate approximately 5 milligrams of wet pellet weight. The pellet was then resuspended into 20 millimolar potassium phosphate buffer (J T Baker, Phillipsburg, N.J.), pH 4.0, to simulate a stressed environment for the bacterial cell where ammonia would be produced for survival. The final concentration was 5 milligram per milliliter. To this final concentration, a 5 millimolar final concentration of L-arginine, L-citrulline, or L-ornithine was added along with a 0.1% final concentration of sucrose (VWR, West Chester, Pa.). This mixture was then incubated at 37° C. in a shaking water bath for 30 minutes before ammonia production was determined.
In order to analyze for ammonia, an Ammonia Assay kit was used from Diagnostic Chemicals Limited (Oxford, Conn.). The intended use of this specific kit is for the in vitro quantification of ammonia in plasma, but the procedure was modified in order to determine and quantify the ammonia production in plaque and/or bacteria.

| Structure (SMILES) | Ammonia (ppm), Mean |
| --- | --- |
| N=C(N)NCCC[C@H](N)C(=O)O [L-Arginine, L-arginine] | 1.06 ppm |
| NC(=O)NCCC[C@H](N)C(=O)O [L-Citrulline, L-citrulline] | 0.951 ppm |
| NCCC[C@H](N)C(=O)O [L-Ornithine, L-ornithine] | 0.134 ppm |

— patent US9682026B2, “Oral care product and methods of use and manufacture thereof” (Colgate-Palmolive Company, priority 2008, dated 2017)
